Key:
Format in all cases: in vivo
[1] = test system: Yellow Fever Mosquito "YFM" (Aedes aegypti); conditions: about 1 day-old larvae, 96-well plate, room temperature, 3 days, mortality
Method in brief: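 About 1 day-old Aedes aegypti larvae in liver-powder water added to wells holding compound diluted from 4000 ppm DMSO stock with 90:10 water:acetone, 6 replicate plates. Plates kept covered at room temperature for 3 days. Wells scored for mortality and reported as rating categories.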

[2] = test system: Cabbage Looper (Trichoplusia ni) ("CL"); test: Bioassay on cabbage looper (CL), 128-well diet tray assay; conditions: 168 h, 50 μg/cm^2 on artificial diet, second instar CL larvae, 25° C., five to seven days, average of eight wells, read-out: CL % Control (or Mortality) rating
Method in brief: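 Second-instar larvae (one to five per well) placed on artificial diet surface-treated with 50 μg/cm^2 compound in 90:10 acetone-water, dried before infestation. Held 25 °C, 14:10 light-dark for five to seven days; percent mortality scored per well and averaged over eight wells.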

[3] = test system: Beet Armyworm (Spodoptera exigua) ("BAW"); test: Bioassay on beet armyworm (BAW), 128-well diet tray assay; conditions: 168 h, 50 μg/cm^2 on artificial diet, second instar BAW larvae, 25° C., five to seven days, average of eight wells, read-out: BAW % Control (or Mortality) rating
Method in brief: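 Second-instar larvae (one to five per well) were placed on artificial diet surface-treated with 50 μg/cm^2 compound applied in 90:10 acetone-water and dried, eight wells per compound. Held at 25° C., 14:10 light-dark for five to seven days; percent mortality was scored per well and averaged over the eight wells.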

| Structure (SMILES) | YFM % Control (or Mortality) rating [1] | mortality at 50 µg/cm2 [2] [%] | mortality at 50 µg/cm2 [3] [%] |
| --- | --- | --- | --- |
| Cc1ccccc1N1C(=O)CS/C1=N\C(=O)NCCCCc1ccc(-c2ncn(-c3ccc(OC(F)(F)F)cc3)n2)cc1 [P144, (Z)-1-(4-oxo-3-(o-tolyl)thiazolidin-2-ylidene)-3-(4-(4-(1-(4-(trifluoromethoxy)phenyl)-1H-1,2,4-triazol-3-yl)phenyl)butyl)urea] | A (80-100) | 50 to 100 | 50 to 100 |
| CC(C)c1ccccc1N1C(=O)CS/C1=N\C(=O)NCCCCc1ccc(-c2ncn(-c3ccc(OC(F)(F)F)cc3)n2)cc1 [P146, P208, (Z)-1-(3-(2-isopropylphenyl)-4-oxothiazolidin-2-ylidene)-3-(4-(4-(1-(4-(trifluoromethoxy)phenyl)-1H-1,2,4-triazol-3-yl)phenyl)butyl)urea] | A (80-100) | 50 to 100 | 50 to 100 |
| CCCc1ccc(C)cc1N1C(=O)CS/C1=N\C(=O)NCCCCc1ccc(-c2ncn(-c3ccc(OC(F)(F)F)cc3)n2)cc1 [P151, P842, (Z)-1-(3-(5-methyl-2-propylphenyl)-4-oxothiazolidin-2-ylidene)-3-(4-(4-(1-(4-(trifluoromethoxy)phenyl)-1H-1,2,4-triazol-3-yl)phenyl)butyl)urea] | A (80-100) | 50 to 100 | 50 to 100 |
| Cc1cccc(C)c1N1C(=O)CS/C1=N\C(=O)NCCCCc1ccc(-c2ncn(-c3ccc(OC(F)(F)F)cc3)n2)cc1 [P152, P1481, (Z)-1-(3-(2,6-dimethylphenyl)-4-oxothiazolidin-2-ylidene)-3-(4-(4-(1-(4-(trifluoromethoxy)phenyl)-1H-1,2,4-triazol-3-yl)phenyl)butyl)urea] | A (80-100) | 50 to 100 | 0 |
| CCc1cccc(C)c1N1C(=O)CS/C1=N\C(=O)NCCCCc1ccc(-c2ncn(-c3ccc(OC(F)(F)F)cc3)n2)cc1 [P153, (Z)-1-(3-(2-ethyl-6-methylphenyl)-4-oxothiazolidin-2-ylidene)-3-(4-(4-(1-(4-(trifluoromethoxy)phenyl)-1H-1,2,4-triazol-3-yl)phenyl)butyl)urea] | D (No activity noticed in this bioassay) | 50 to 100 | 0 |
| Cc1ccc(N2C(=O)CS/C2=N\C(=O)NCCCCc2ccc(-c3ncn(-c4ccc(OC(F)(F)F)cc4)n3)cc2)c(C(C)C)c1 [P154, (Z)-1-(3-(2-isopropyl-4-methylphenyl)-4-oxothiazolidin-2-ylidene)-3-(4-(4-(1-(4-(trifluoromethoxy)phenyl)-1H-1,2,4-triazol-3-yl)phenyl)butyl)urea] | B (More than 0-Less than 80) | 50 to 100 | 50 to 100 |
| CC(C)c1cc(F)ccc1N1C(=O)CS/C1=N\C(=O)NCCCCc1ccc(-c2ncn(-c3ccc(OC(F)(F)F)cc3)n2)cc1 [P155. P1162, (Z)-1-(3-(4-fluoro-2-isopropylphenyl)-4-oxothiazolidin-2-ylidene)-3-(4-(4-(1-(4-(trifluoromethoxy)phenyl)-1H-1,2,4-triazol-3-yl)phenyl)butyl)urea] | A (80-100) | 50 to 100 | 50 to 100 |
| COc1ccc(C(C)C)c(N2C(=O)CS/C2=N\C(=O)NCCCCc2ccc(-c3ncn(-c4ccc(OC(F)(F)F)cc4)n3)cc2)c1 [P156, P682, (Z)-1-(3-(2-isopropyl-5-methoxyphenyl)-4-oxothiazolidin-2-ylidene)-3-(4-(4-(1-(4-(trifluoromethoxy)phenyl)-1H-1,2,4-triazol-3-yl)phenyl)butyl)urea] | A (80-100) | 50 to 100 | 50 to 100 |

Source: patent publication US9783532B2, “Molecules having certain pesticidal utilities, and intermediates, compositions, and processes related thereto” (Dow AgroSciences LLC, priority 2013, dated 2017)
